Earlier results in US20230416219A1, “R-MDMA CRYSTAL FORMS” (Mind Medicine, Inc., priority 2022, published 2023).

Key:
[1] = system: parkinsonian animal model
[2] = in vivo
[3] = molecular target: 5-HT2A receptors (Homo sapiens, UniProt P28223)
[4] = molecular target: DAT (Homo sapiens, UniProt Q01959)
[5] = molecular target: SERT (Homo sapiens, UniProt P31645)
Chain of SERT (P31645 whole entry, species assumed): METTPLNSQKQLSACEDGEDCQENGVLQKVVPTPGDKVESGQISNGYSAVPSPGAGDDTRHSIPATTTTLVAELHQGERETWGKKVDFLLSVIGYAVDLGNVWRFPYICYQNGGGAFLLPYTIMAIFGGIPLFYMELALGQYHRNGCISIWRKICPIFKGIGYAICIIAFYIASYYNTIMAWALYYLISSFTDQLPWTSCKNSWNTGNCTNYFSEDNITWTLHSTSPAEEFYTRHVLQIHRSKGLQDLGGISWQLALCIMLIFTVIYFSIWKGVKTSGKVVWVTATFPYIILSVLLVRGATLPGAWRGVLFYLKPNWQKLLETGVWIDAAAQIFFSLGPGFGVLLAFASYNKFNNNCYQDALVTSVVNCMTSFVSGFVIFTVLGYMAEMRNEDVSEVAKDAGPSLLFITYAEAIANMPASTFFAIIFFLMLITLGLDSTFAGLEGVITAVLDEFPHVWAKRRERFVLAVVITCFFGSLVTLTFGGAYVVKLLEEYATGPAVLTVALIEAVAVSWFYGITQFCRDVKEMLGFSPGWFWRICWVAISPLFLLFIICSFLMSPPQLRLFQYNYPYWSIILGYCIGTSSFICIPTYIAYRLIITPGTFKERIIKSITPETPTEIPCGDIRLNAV

Chain of 5-HT2A receptors (P28223 whole entry): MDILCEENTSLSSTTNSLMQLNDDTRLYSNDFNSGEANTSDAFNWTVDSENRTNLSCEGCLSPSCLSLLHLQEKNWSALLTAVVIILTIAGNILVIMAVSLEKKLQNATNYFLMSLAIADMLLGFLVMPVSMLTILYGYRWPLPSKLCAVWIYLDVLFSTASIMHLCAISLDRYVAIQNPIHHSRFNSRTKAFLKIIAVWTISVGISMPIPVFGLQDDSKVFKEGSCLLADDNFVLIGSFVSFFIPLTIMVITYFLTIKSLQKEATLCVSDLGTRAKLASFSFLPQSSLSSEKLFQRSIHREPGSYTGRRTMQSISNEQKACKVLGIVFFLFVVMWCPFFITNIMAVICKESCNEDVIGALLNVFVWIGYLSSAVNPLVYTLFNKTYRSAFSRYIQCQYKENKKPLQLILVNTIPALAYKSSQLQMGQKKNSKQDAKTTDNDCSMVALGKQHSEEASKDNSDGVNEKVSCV
Chain of DAT (Q01959 whole entry, species assumed): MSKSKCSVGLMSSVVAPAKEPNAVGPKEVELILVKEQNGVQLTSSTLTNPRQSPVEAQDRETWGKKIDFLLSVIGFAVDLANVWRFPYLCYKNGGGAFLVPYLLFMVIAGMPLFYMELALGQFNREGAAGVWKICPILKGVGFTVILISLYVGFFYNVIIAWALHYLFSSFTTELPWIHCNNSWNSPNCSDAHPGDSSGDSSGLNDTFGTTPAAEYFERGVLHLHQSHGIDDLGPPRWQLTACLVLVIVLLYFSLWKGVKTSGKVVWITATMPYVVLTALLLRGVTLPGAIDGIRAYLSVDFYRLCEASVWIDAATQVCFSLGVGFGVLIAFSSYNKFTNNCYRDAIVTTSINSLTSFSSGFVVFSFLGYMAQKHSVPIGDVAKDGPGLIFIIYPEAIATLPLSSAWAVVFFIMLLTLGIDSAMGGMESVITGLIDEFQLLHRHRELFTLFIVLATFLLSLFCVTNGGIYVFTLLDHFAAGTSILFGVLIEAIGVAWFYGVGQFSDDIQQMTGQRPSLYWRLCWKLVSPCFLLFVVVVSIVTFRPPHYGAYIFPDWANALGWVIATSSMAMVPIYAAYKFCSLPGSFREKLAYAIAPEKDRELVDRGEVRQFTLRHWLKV

For CN[C@H](C)Cc1ccc2c(c1)OCO2 [R-MDMA], the “duration of good ON-time” value [1] is listed as “increased”, the “severity of peak-dose dyskinesia” value [1] is listed as “decreased” and the hyperthermia [2] is listed as “does not produce hyperthermia”. The “selectivity for 5-HT2A receptors” value [3] was “selective compound for 5-HT2A receptors”.

For CN[C@@H](C)Cc1ccc2c(c1)OCO2 [S-MDMA], the “affinity for DAT” value [4] is listed as “moderate affinity”, the “severity of peak-dose dyskinesia” value [1] is listed as “exacerbated” and the “total duration of ON-time” value [1] is listed as “extended”. The “affinity for SERT” value [5] was “high affinity”.
